What all share (type): functional, cell-based
Holding throughout (settings): Homo sapiens

Assay [1] concerns HUVEC. The assay can be described thus: Ability to block bFGF-induced vessel growth in the type 1 collagen matrix at 1 uM.
The subject of assay [2] is HUVEC. Nature of the assay: Ability to block bFGF-induced vessel growth in the type 1 collagen matrix at 5 uM.
Assay [3] has as its system HUVEC. Nature of the assay: Ability to block bFGF-induced vessel growth in the type 1 collagen matrix at 500 nM.
The test system of assay [4] is HUVEC. Nature of the assay: Increase of ubiquitinated protein level in TNF-alpha-treated HUVEC at 5 uM.

The source made the active and inactive calls. No cut-off for these calls is given here.

Turning to `CC1=C(CO)C(=O)O[C@@H]([C@@H](C)[C@H]2CC[C@H]3[C@@H]4C[C@H]5O[C@]56[C@@H](O)C=CC(=O)[C@]6(C)[C@H]4CC[C@]23C)C1`, the result in assay [1] was Active.

As to `CC1=C(COC(=O)CNC(=O)CCCCCNC(=O)CCCCCNC(=O)CCCC[C@@H]2SCC3NC(=O)NC32)C(=O)OC([C@@H](C)C2CCC3C4C[C@H]5O[C@]56[C@@H](O)C=CC(=O)[C@]6(C)C4CC[C@@]32C)C1` (stereo not given in full), the result in assay [2] and in assay [4] was Active. The result in assay [3] was inactive. On to `CC1=C(CO)C(=O)OC([C@@H](C)C2CCC3C4C(CC[C@@]32C)[C@@]2(C)C(=O)C=CC[C@]2(O)[C@H]2O[C@@H]42)C1` (stereo not given in full), for which the result in assay [2] was inactive.

For the origin of these results see ChEMBL document CHEMBL1147689, “Development of withaferin A analogs as probes of angiogenesis” (Bioorg Med Chem Lett, 2006).
